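1) Cells in 96-well plates. 2) Compound, 48 h, 5 concentrations. 3) Linear interpolation between surrounding doses. 4) Unreached endpoint = highest concentration. Abbreviation: GI50, concentration required for 50% inhibition of growth. TGI marks complete inhibition of growth.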
Experiments:
Experiment in all cases: growth of human tumour cells (NCI), 48 h
[1] = system: SK-MEL-28 melanoma
[2] = system: MDA-MB-231 breast
[3] = system: RPMI-8226 leukemia
[4] = system: HCT-15 colon
[5] = system: EKVX NSCLC
[6] = system: 786-0 renal
[7] = system: SF-268 CNS
[8] = system: UO-31 renal
[9] = system: NCI/ADR-RES ovarian
[10] = system: ACHN renal
[11] = system: HL-60(TB) leukemia
[12] = system: NCI-H522 lung
[13] = system: SK-MEL-5 melanoma
[14] = system: OVCAR-3 ovarian
[15] = system: M14 melanoma
[16] = system: NCI-H226 lung
[17] = system: UACC-257 melanoma
[18] = system: MCF7 breast
[19] = system: OVCAR-5 ovarian
[20] = system: SNB-75 CNS
[21] = system: CAKI-1 renal
[22] = system: OVCAR-8 ovarian
[23] = system: A498 renal
[24] = system: IGROV1 ovarian
[25] = system: HOP-62 NSCLC
[26] = system: NCI-H23 lung
[27] = system: HS 578T breast
[28] = system: UACC-62 melanoma
[29] = system: BT-549 breast
[30] = system: A549 NSCLC
[31] = system: HT29 colon
[32] = system: OVCAR-4 ovarian
[33] = system: LOX IMVI melanoma
[34] = system: MALME-3M melanoma
[35] = system: CCRF-CEM leukemia
[36] = system: HCT-116 colon
[37] = system: U251 CNS
[38] = system: TK-10 renal
[39] = system: HOP-92 NSCLC
[40] = system: MOLT-4 leukemia
[41] = system: T-47D breast
[42] = system: SF-539 CNS
[43] = system: MDA-MB-468 breast
[44] = system: SK-OV-3 ovarian
[45] = system: SNB-19 CNS
[46] = system: DU-145 prostate
[47] = system: RXF 393 renal
[48] = system: SW-620 colon
[49] = system: MDA-MB-435
[50] = system: SF-295 CNS
[51] = system: PC-3 prostate
[52] = system: COLO 205 colon
[53] = system: SR leukemia
[54] = system: K-562 leukemia
[55] = system: NCI-H460 lung
[56] = system: SN12C renal
[57] = system: KM12 colon
[58] = system: HCC-2998 colon
[59] = system: SK-MEL-2 melanoma

C/C(=N\N=C1/C(=O)Nc2ccc(Cl)cc21)c1ccc2c(c1)Nc1ccccc1S2
GI50 [1]: 6.23 µM
TGI [1]: 22.8 µM
GI50 [2]: 8.23 µM
TGI [2]: 21.9 µM
GI50 [3]: 5.86 µM
TGI [3]: 99.6 µM
GI50 [4]: 6.61 µM
TGI [4]: 24 µM
GI50 [5]: 4.68 µM
TGI [5]: 22.9 µM
GI50 [6]: 2.4 µM
TGI [6]: 5.86 µM
GI50 [7]: 8.19 µM
TGI [7]: 26.5 µM
GI50 [8]: 4.05 µM
TGI [8]: 19.6 µM
GI50 [9]: 4.74 µM
TGI [9]: 24.6 µM
GI50 [10]: 3.55 µM
TGI [10]: 14.1 µM
GI50 [11]: 6.21 µM
TGI [11]: > 100 µM
GI50 [12]: 3.22 µM
TGI [12]: 15.3 µM
GI50 [13]: 3.8 µM
TGI [13]: 14.4 µM
GI50 [14]: 10.2 µM
TGI [14]: 23.4 µM
GI50 [15]: 7.35 µM
TGI [15]: 23.3 µM
GI50 [16]: 3.49 µM
TGI [16]: 19.7 µM
GI50 [17]: 4.07 µM
TGI [17]: 18.1 µM
GI50 [18]: 3.33 µM
TGI [18]: 13.5 µM
GI50 [19]: 10.1 µM
TGI [19]: 26.2 µM
GI50 [20]: 4.28 µM
TGI [20]: 19.4 µM
GI50 [21]: 4.42 µM
TGI [21]: 17.9 µM
GI50 [22]: 4.2 µM
TGI [22]: 17.9 µM
GI50 [23]: 5.89 µM
TGI [23]: 18.7 µM
GI50 [24]: 5.62 µM
TGI [24]: 23.1 µM
GI50 [25]: 12.5 µM
TGI [25]: 27.8 µM
GI50 [26]: 7.3 µM
TGI [26]: 21.7 µM
GI50 [27]: 6.86 µM
TGI [27]: 41.1 µM
GI50 [28]: 4.2 µM
TGI [28]: 17.1 µM
GI50 [29]: 3.47 µM
TGI [29]: 12.3 µM
GI50 [30]: 4.21 µM
TGI [30]: 17.8 µM
GI50 [31]: 4.54 µM
TGI [31]: 17.6 µM
GI50 [32]: 4.67 µM
TGI [32]: 22.5 µM
GI50 [33]: 5.77 µM
TGI [33]: 18.7 µM
GI50 [34]: 7.44 µM
TGI [34]: 21.5 µM
GI50 [35]: 3.42 µM
TGI [35]: 98.5 µM
GI50 [36]: 4.6 µM
TGI [36]: 19 µM
GI50 [37]: 5.62 µM
TGI [37]: 18.4 µM
GI50 [38]: 7.07 µM
TGI [38]: 23.7 µM
GI50 [39]: 2.92 µM
TGI [39]: 11.3 µM
GI50 [40]: 2.71 µM
TGI [40]: 8.28 µM
GI50 [41]: 2.54 µM
TGI [41]: 12.8 µM
GI50 [42]: 6.83 µM
TGI [42]: 19.8 µM
GI50 [43]: 1.8 µM
TGI [43]: 7.31 µM
GI50 [44]: 11.9 µM
TGI [44]: 30.7 µM
GI50 [45]: 11.9 µM
TGI [45]: 33.1 µM
GI50 [46]: 4.64 µM
TGI [46]: 18 µM
GI50 [47]: 5.05 µM
TGI [47]: 19 µM
GI50 [48]: 5.56 µM
TGI [48]: 20.1 µM
GI50 [49]: 3.27 µM
TGI [49]: 15.5 µM
GI50 [50]: 4.08 µM
TGI [50]: 17 µM
GI50 [51]: 3.14 µM
TGI [51]: 16.3 µM
GI50 [52]: 4.84 µM
TGI [52]: 17.2 µM
GI50 [53]: 4.4 µM
TGI [53]: 56.8 µM
GI50 [54]: 4.14 µM
TGI [54]: > 100 µM
GI50 [55]: 3.17 µM
TGI [55]: 10.3 µM
GI50 [56]: 4.47 µM
TGI [56]: 16.8 µM
GI50 [57]: 3.51 µM
TGI [57]: 14.1 µM
GI50 [58]: 7.54 µM
TGI [58]: 22.5 µM
GI50 [59]: 6.77 µM
TGI [59]: 20.8 µM

Reference: PubChem BioAssay (NCI)
